The values that follow come from article PMC3447118 (Bioconjugate chemistry, 2012).

Data set [1] in a line: microPET imaging of U87MG tumor xenografts in mice. The data set is classed as in vivo, nude mice. The conditions noted are these: nude, mouse, iv, total radioactivity.
Data set [2] has as its system U87MG tumor xenografts. Put plainly: microPET imaging of U87MG tumor xenografts in mice. The data set is classed as in vivo, nude mice.
Where [3] appears, read: tumor versus muscle (background).

A word on the tissue uptake: it is the percentage of the injected dose found per gram of tissue.

On to `N=C(N)NCCC[C@@H]1NC(=O)[C@H](CCCCNC(=O)CC[C@H](NC(=O)COCCOCCOCCNC(=O)[C@@H]2CSC(c3nc4ccc(OCCF)cc4s3)=N2)C(=O)NCCCC[C@@H]2NC(=O)[C@@H](Cc3ccc(O)cc3)NC(=O)[C@H](CC(=O)O)NC(=O)CNC(=O)[C@H](CCCNC(=N)N)NC2=O)NC(=O)[C@@H](Cc2ccc(O)cc2)NC(=O)[C@H](CC(=O)O)NC(=O)CNC1=O` [[^18F]CBTRGD2], for which the tissue uptake at 0.5 h in data set [1] (kidney, 20 mg/kg) came out at 2.76 ± 0.85 %ID/g; in data set [1] (kidney), 5.46 ± 1.1 %ID/g; in data set [1] (liver, 20 mg/kg) it was 1.34 ± 0.06 %ID/g; in data set [1] (liver) it was 3.64 ± 0.76 %ID/g; in data set [1] (tumor, 20 mg/kg) it was 1.62 ± 0.1 %ID/g. Also, the tissue uptake at 1 h in data set [1] (kidney, 20 mg/kg) is 1.26 ± 0.23 %ID/g; in data set [1] (kidney), 3.99 ± 1.08 %ID/g; in data set [1] (liver, 20 mg/kg), 0.7 ± 0.08 %ID/g; in data set [1] (liver), 2.84 ± 0.76 %ID/g; in data set [1] (tumor, 20 mg/kg), 1.26 ± 0.13 %ID/g; in data set [1] (tumor), 4.25 ± 0.82 %ID/g. The tissue uptake at 2 h in data set [1] (kidney, 20 mg/kg) was 0.81 ± 0.04 %ID/g; in data set [1] (kidney), 2.26 ± 0.67 %ID/g; in data set [1] (liver, 20 mg/kg) it was 0.32 ± 0.01 %ID/g; in data set [1] (liver), 2.15 ± 0.53 %ID/g; in data set [1] (tumor, 20 mg/kg), 0.49 ± 0.02 %ID/g; in data set [1] (tumor), 3.35 ± 0.71 %ID/g. For the same molecule, the tissue to tissue ratio at 0.5 h in data set [1] (setting [3]) was 4.5 ± 0.83. Besides, the tissue to tissue ratio at 1 h in data set [1] (setting [3]) was 5.4 ± 0.72. The tissue to tissue ratio at 2 h in data set [1] (setting [3]) came out at 6.3 ± 1.1. Also, the “specific tumor uptake higher than that of [18F]FPPRGD2” value in data set [2] (30 min, comparison in the same mice (Fig S5, Table S1)) was 50%. Moreover, the “uptakes in organs such as liver and kidney compared with [18F]FPPRGD2” value in data set [2] (comparison in the same mice) was “higher”.
